Measurements published in patent publication US8574563B2 (Bristol-Myers Squibb Company, priority 2006, dated 2013).

These compounds were tested on HCV 1b-377-neo replicon cells (assay: HCV replicon assay, HCV 1b-377-neo replicon cells (1b FRET)). Settings: HCV 1b-377-neo replicon cells; HCV 1b genotype; read-out: EC50 range against HCV 1b (Table 2, Range).
Assay type: cell-based, Hepatitis C virus genotype 1b
In short: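 Compounds tested in HCV genotype 1b-377-neo replicon cells with a FRET read-out. Cells resistant to a reference NS5A inhibitor through a Y2065H NS5A mutation were run alongside wild-type cells.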

Question: O=C(C(c1ccccc1)N1CC[C@H](F)C1)N1CCC[C@H]1c1ncc(-c2ccc(-c3ccc(-c4cnc([C@@H]5CCCN5C(=O)C(c5ccccc5)N5CC[C@H](F)C5)[nH]4)cc3)cc2)[nH]1 (stereo partly drawn) [Example 19, 5,5′-(4,4′-biphenyldiyl)bis(2-((2S)-1-(((3S)-3-fluoro-1-pyrrolidinyl)(phenyl)acetyl)-2-pyrrolidinyl)-1H-imidazole)] was tested. Which EC50 did it give?
Answer: The EC50 was 0.001 to 0.999 nM.

Same assay, conditions: Hepatitis C virus, HCV 1b-377-neo replicon cells; HCV 1b genotype; read-out: EC50 range against HCV 1b (Table 2, Range)

Question: For COC(=O)N[C@@H](C(=O)N1CCC[C@H]1c1ncc(-c2ccc(-c3ccc(-c4cnc([C@@H]5CCCN5C(=O)C(c5cnc6ccccc6c5)N(C)C)[nH]4)cc3)cc2)[nH]1)c1ccccc1 (stereo partly drawn) [Example 84-52, methyl ((1R)-2-((2S)-2-(5-(4′-(2-((2S)-1-((dimethylamino)(3-quinolinyl)acetyl)-2-pyrrolidinyl)-1H-imidazol-5-yl)-4-biphenylyl)-1H-imidazol-2-yl)-1-pyrrolidinyl)-2-oxo-1-phenylethyl)carbamate], which EC50 is on record?
Answer: Its EC50 is 0.001 to 0.999 nM.

Question: Which EC50 does the source give for Cn1cncc1C(=O)N[C@@H](C(=O)N1CCC[C@H]1c1ncc(-c2ccc(-c3ccc(-c4c[nH]c([C@@H]5CCCN5C(=O)[C@H]5CCCO5)n4)cc3)cc2)[nH]1)c1ccccc1 [Example 120-5, 1-methyl-N-((1R)-2-oxo-1-phenyl-2-((2S)-2-(5-(4′-(2-((2S)-1-((2R)-tetrahydro-2-furanylcarbonyl)-2-pyrrolidinyl)-1H-imidazol-4-yl)-4-biphenylyl)-1H-imidazol-2-yl)-1-pyrrolidinyl)ethyl)-1H-imidazole-5-carboxamide] here?
Answer: The EC50 was 1 to 99 nM.

Question: Which EC50 does the source give for COC(=O)N[C@@H](C)C(=O)N1CCC[C@H]1c1ncc(-c2ccc(-c3cc(F)c(-c4cnc([C@@H]5CCCN5C(=O)[C@H](C)NC(=O)OC)[nH]4)cc3F)cc2)[nH]1 [Example D52, methyl ((1S)-2-((2S)-2-(5-(2′5′-difluoro-4′-(2-((2S)-1-(N-(methoxycarbonyl)-L-alanyl)-2-pyrrolidinyl)-1H-imidazol-5-yl)-4-biphenylyl)-1H-imidazol-2-yl)-1-pyrrolidinyl)-1-methyl-2-oxoethyl)carbamate] here?
Answer: The EC50 was 0.001 to 0.999 nM.

Question: For COC[C@H](NC(=O)OC)C(=O)N1CCC[C@H]1c1ncc(-c2ccc(-c3ccc(-c4cnc([C@@H]5CCCN5C(=O)[C@H](C)NC(=O)OC)[nH]4)cc3)cc2)[nH]1 [Example M100, methyl ((1S)-2-((2S)-2-(5-(4′-(2-((2S)-1-(N-(methoxycarbonyl)-L-alanyl)-2-pyrrolidinyl)-1H-imidazol-5-yl)-4-biphenylyl)-1H-imidazol-2-yl)-1-pyrrolidinyl)-1-(methoxymethyl)-2-oxoethyl)carbamate], which EC50 is on record?
Answer: The EC50 was 1 to 99 nM.

Question: CN(C)CC[C@H](NC(=O)OC(C)(C)C)C(=O)N1CCC[C@H]1c1ncc(-c2ccc(-c3ccc(-c4cnc([C@@H]5CCCN5C(=O)[C@H](CCN(C)C)NC(=O)OC(C)(C)C)[nH]4)cc3)cc2)[nH]1 [cj-140, di-tert-butyl (4,4′-biphenyldiylbis(1H-imidazole-5,2-diyl(2S)-2,1-pyrrolidinediyl((2S)-4-(dimethylamino)-1-oxo-1,2-butanediyl)))biscarbamate] was tested. Which EC50 did it give?
Answer: The EC50 was 100 to 999 nM.

Question: Which EC50 does the source give for COC(=O)N[C@@H]1CC[C@H](C(=O)N2CCC[C@H]2c2ncc(-c3ccc(-c4ccc(-c5cnc([C@@H]6CCCN6C(=O)[C@@H](NC(=O)OC)C(C)C)[nH]5)cc4)cc3)[nH]2)C1 [cj-62, methyl ((1S)-1-(((2S)-2-(5-(4′-(2-((2S)-1-(((1S,3R)-3-((methoxycarbonyl)amino)cyclopentyl)carbonyl)-2-pyrrolidinyl)-1H-imidazol-5-yl)-4-biphenylyl)-1H-imidazol-2-yl)-1-pyrrolidinyl)carbonyl)-2-methylpropyl)carbamate] here?
Answer: The EC50 was 0.001 to 0.999 nM.

Question: How did the EC50 turn out when CCN(CC)[C@@H](C(=O)N1CCC[C@H]1c1ncc(-c2ccc(-c3ncc(-c4c[nH]c([C@@H]5CCCN5C(=O)[C@@H](NC(=O)OC)C(C)C)n4)cn3)cc2)[nH]1)c1ccccc1 [Example D76] was run?
Answer: The EC50 was 0.001 to 0.999 nM.

Question: CC(C)[C@H](O)C(=O)N1[C@@H](C)CC[C@H]1c1nc(-c2ccc(-c3ccc(-c4c[nH]c([C@@H]5CC[C@H](C)N5C(=O)[C@@H](O)C(C)C)n4)cc3)cc2)c[nH]1 [Example M161, (2S,2′S)-1,1′-(4,4′-biphenyldiylbis(1H-imidazole-4,2-diyl((2S,5S)-5-methyl-2,1-pyrrolidinediyl)))bis(3-methyl-1-oxo-2-butanol)] was tested. Which EC50 did it give?
Answer: Its EC50 is 1 to 99 nM.

Question: For COC(=O)N[C@@H](C(=O)N1CCC[C@H]1c1ncc(-c2ccc(-c3ccc(-c4cnc([C@@H]5CCCN5C(=O)[C@@H]5CCN(Cc6ccccc6)C5)[nH]4)cc3)cc2)[nH]1)c1ccccc1 [Example 84-17, methyl ((1R)-2-((2S)-2-(5-(4′-(2-((2S)-1-(((3R)-1-benzyl-3-pyrrolidinyl)carbonyl)-2-pyrrolidinyl)-1H-imidazol-5-yl)-4-biphenylyl)-1H-imidazol-2-yl)-1-pyrrolidinyl)-2-oxo-1-phenylethyl)carbamate], which EC50 is on record?
Answer: The EC50 was 0.001 to 0.999 nM.

Question: Which EC50 does the source give for COC(=O)N[C@@H](C)C(=O)N1CCC[C@H]1c1ncc(-c2ccc(-c3ccc(-c4cnc([C@@H]5CCCN5C(=O)[C@H](Nc5ncccn5)C(C)C)[nH]4)cc3)cc2)[nH]1 [cj-11j, methyl ((1S)-1-methyl-2-oxo-2-((2S)-2-(5-(4′-(2-((2S)-1-(N-2-pyrimidinyl-D-valyl)-2-pyrrolidinyl)-1H-imidazol-5-yl)-4-biphenylyl)-1H-imidazol-2-yl)-1-pyrrolidinyl)ethyl)carbamate] here?
Answer: Its EC50 is 0.001 to 0.999 nM.

Question: CO[C@@H](C(=O)N1CCC[C@H]1c1ncc(-c2ccc(-c3ccc(-c4cnc([C@@H]5CCCN5C(=O)[C@@H](c5ccccc5F)N(C)C)[nH]4)cc3)cc2)[nH]1)c1ccccc1 [Example 107-32, (1R)-1-(2-fluorophenyl)-2-((2S)-2-(5-(4′-(2-((2S)-1-((2R)-2-methoxy-2-phenylacetyl)-2-pyrrolidinyl)-1H-imidazol-5-yl)-4-biphenylyl)-1H-imidazol-2-yl)-1-pyrrolidinyl)-N,N-dimethyl-2-oxoethanamine] was tested. Which EC50 did it give?
Answer: The EC50 was 0.001 to 0.999 nM.

Question: COC(=O)N[C@@H](C(=O)N(C)[C@@H](C)c1ncc(-c2ccc(-c3ncc(-c4cnc([C@@H]5CCCN5C(=O)[C@@H](c5ccccc5)N5CCCCC5)[nH]4)cn3)cc2)[nH]1)c1ccccc1 [Example 152l-1, methyl ((1R)-2-(methyl((1S)-1-(4-(4-(5-(2-((2S)-1-((2R)-2-phenyl-2-(1-piperidinyl)acetyl)-2-pyrrolidinyl)-1H-imidazol-5-yl)-2-pyrimidinyl)phenyl)-1H-imidazol-2-yl)ethyl)amino)-2-oxo-1-phenylethyl)carbamate] was tested. Which EC50 did it give?
Answer: The EC50 was 0.001 to 0.999 nM.

Question: For CCN(CC)[C@H]1CC[C@@H](C(=O)N2CCC[C@H]2c2ncc(-c3ccc(-c4ccc(-c5cnc([C@@H]6CCCN6C(=O)[C@@H](NC(=O)OC)[C@@H](C)OC)[nH]5)cc4)cc3)[nH]2)CC1 [cj-72, methyl ((1S,2R)-1-(((2S)-2-(5-(4′-(2-((2S)-1-((cis-4-(diethylamino)cyclohexyl)carbonyl)-2-pyrrolidinyl)-1H-imidazol-5-yl)-4-biphenylyl)-1H-imidazol-2-yl)-1-pyrrolidinyl)carbonyl)-2-methoxypropyl)carbamate], which EC50 is on record?
Answer: Its EC50 is 0.001 to 0.999 nM.

Question: For O=CN[C@@H](C(=O)N1CCC[C@H]1c1ncc(-c2ccc(-c3ccc(-c4cnc([C@@H]5CCCN5C(=O)[C@H](NC=O)c5ccccc5)[nH]4)cc3)cc2)[nH]1)c1ccccc1 [Example 23, N,N′-(4,4′-biphenyldiylbis(1H-imidazole-5,2-diyl(2S)-2,1-pyrrolidinediyl((1R)-2-oxo-1-phenyl-2,1-ethanediyl)))diformamide], which EC50 is on record?
Answer: The EC50 was 0.001 to 0.999 nM.
